Measured values from article PMC2248166, “Quantitative peptide binding motifs for 19 human and mouse MHC class I molecules derived using positional scanning combinatorial peptide libraries” (Immunome Research, 2008).
pIC50: −log10 of the molar value. Where a SMILES comes first, the peptide text is derived from it.

Each compound was assayed against HLA A*3001 (Homo sapiens, UniProt P04439, D140H/D185E/E176W/F33S/G80R/H175R/K168Q/R138E/R41S) (assay: biochemical).
Type: binding

Chain of HLA A*3001 (P04439 25-365 limits assumed, stated change not applied): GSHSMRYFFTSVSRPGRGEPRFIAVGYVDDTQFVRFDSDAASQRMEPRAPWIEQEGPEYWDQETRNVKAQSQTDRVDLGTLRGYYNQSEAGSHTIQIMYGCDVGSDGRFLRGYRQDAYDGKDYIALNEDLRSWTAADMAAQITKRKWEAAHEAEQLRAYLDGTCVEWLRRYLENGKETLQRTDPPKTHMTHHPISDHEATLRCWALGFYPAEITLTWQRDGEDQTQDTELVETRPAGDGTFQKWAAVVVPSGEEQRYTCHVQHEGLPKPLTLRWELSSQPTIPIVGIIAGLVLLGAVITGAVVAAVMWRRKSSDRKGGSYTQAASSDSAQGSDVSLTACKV

| SMILES | pIC50 |
| --- | --- |
| CSCC[C@H](N)C(=O)NCC(=O)N[C@@H](CCCNC(=N)N)C(=O)N[C@@H](Cc1ccccc1)C(=O)NCC(=O)N[C@@H](Cc1ccc(O)cc1)C(=O)N[C@H](C(=O)N1CCC[C@H]1C(=O)N[C@@H](Cc1ccc(O)cc1)C(=O)O)C(C)C [3102.0212] (H-MGRFGYVPY-OH) | 7.82 |
| CC[C@H](C)[C@H](NC(=O)[C@H](CO)NC(=O)[C@@H](NC(=O)[C@@H](N)CCCCN)C(C)C)C(=O)N[C@@H](CC(C)C)C(=O)N[C@@H](Cc1c[nH]cn1)C(=O)N1CCC[C@H]1C(=O)N[C@H](C(=O)N[C@@H](CO)C(=O)O)[C@@H](C)CC [3102.0159] (H-KVSILHPIS-OH) | 7.96 |
| CC[C@H](C)[C@H](NC(=O)[C@H](CC(N)=O)NC(=O)[C@H](CCCNC(=N)N)NC(=O)[C@@H](NC(=O)[C@H](CCCNC(=N)N)NC(=O)[C@H](CO)NC(=O)CN)C(C)C)C(=O)N[C@H](C(=O)N[C@@H](C)C(=O)O)[C@@H](C)CC [3102.0112] (H-GSRVRNIIA-OH) | 8.05 |
| C[C@@H](O)[C@H](NC(=O)[C@H](CO)NC(=O)CNC(=O)[C@H](CCCNC(=N)N)NC(=O)[C@H](CC(N)=O)NC(=O)CN)C(=O)N[C@@H](CO)C(=O)N[C@@H](Cc1ccccc1)C(=O)N[C@@H](CCCCN)C(=O)O [3102.0043] (H-GNRGSTSFK-OH) | 8.70 |
| CC[C@H](C)[C@H](NC(=O)[C@@H](N)CCCCN)C(=O)N[C@@H](CCCCN)C(=O)N[C@@H](C)C(=O)NCC(=O)N1CCC[C@H]1C(=O)N[C@@H](CCCNC(=N)N)C(=O)N[C@@H](Cc1ccc(O)cc1)C(=O)N[C@H](C(=O)O)C(C)C [3102.0097] (H-KIKAGPRYV-OH) | 8.16 |
| CC[C@H](C)[C@H](NC(=O)[C@H](CCCCN)NC(=O)[C@@H](NC(=O)CN)[C@@H](C)O)C(=O)N[C@@H](C)C(=O)N[C@@H](CC(C)C)C(=O)N[C@@H](CC(C)C)C(=O)N[C@@H](CCC(=O)O)C(=O)N[C@@H](CC(C)C)C(=O)O [3102.0200] (H-GTKIALLEL-OH) | 8.89 |
| CSCC[C@H](NC(=O)[C@H](CCSC)NC(=O)[C@@H]1CCCN1C(=O)[C@@H](NC(=O)[C@@H](NC(=O)[C@H](CC(N)=O)NC(=O)[C@H](CCCNC(=N)N)NC(=O)[C@H](CO)NC(=O)[C@@H](N)CCCCN)[C@@H](C)O)[C@@H](C)O)C(=O)O [3102.0277] (H-KSRNTTPMM-OH) | 10.00 |
| CC[C@H](C)[C@H](NC(=O)[C@H](CCCNC(=N)N)NC(=O)[C@@H](NC(=O)[C@@H](N)CCCCN)[C@@H](C)O)C(=O)N[C@@H](CCCNC(=N)N)C(=O)N[C@@H](CC(N)=O)C(=O)N[C@@H](CC(C)C)C(=O)N[C@@H](CCCCN)C(=O)N[C@@H](CCCNC(=N)N)C(=O)O [3102.0236] (H-KTRIRNLKR-OH) | 8.19 |
| CC[C@H](C)[C@H](NC(=O)[C@H](Cc1ccc(O)cc1)NC(=O)[C@@H](NC(=O)[C@H](CCCCN)NC(=O)[C@H](CCCCN)NC(=O)[C@H](Cc1ccccc1)NC(=O)[C@@H](N)CCCNC(=N)N)C(C)C)C(=O)N[C@@H](CC(C)C)C(=O)N[C@H](C(=O)O)C(C)C [3102.0055] (H-RFKKVYILV-OH) | 7.89 |
| CC[C@H](C)[C@H](NC(=O)[C@H](Cc1ccccc1)NC(=O)[C@H](CC(C)C)NC(=O)[C@H](CC(=O)O)NC(=O)[C@H](CCCNC(=N)N)NC(=O)[C@@H](NC(=O)[C@@H](N)CCCNC(=N)N)[C@@H](C)O)C(=O)N[C@@H](C)C(=O)N[C@@H](CC(C)C)C(=O)O [3102.0188] (H-RTRDLFIAL-OH) | 9.96 |
| CC(C)C[C@H](NC(=O)[C@H](CO)NC(=O)[C@H](CC(C)C)NC(=O)[C@H](CS)NC(=O)[C@H](CCCNC(=N)N)NC(=O)[C@H](CO)NC(=O)[C@@H](N)CS)C(=O)N[C@@H](Cc1ccccc1)C(=O)N[C@@H](Cc1ccc(O)cc1)C(=O)O [3102.0178] (H-CSRCLSLFY-OH) | 7.66 |
| CC[C@H](C)[C@H](NC(=O)[C@H](C)NC(=O)[C@H](Cc1c[nH]cn1)NC(=O)[C@H](CO)NC(=O)[C@@H](N)CCCCN)C(=O)N[C@@H](Cc1ccc(O)cc1)C(=O)N[C@@H](Cc1c[nH]c2ccccc12)C(=O)N[C@@H](CC(=O)O)C(=O)N[C@@H](CCCCN)C(=O)O [3102.0046] (H-KSHAIYWDK-OH) | 7.96 |
| CC(C)C[C@H](NC(=O)[C@H](C)NC(=O)[C@H](CCC(=O)O)NC(=O)[C@H](CCCNC(=N)N)NC(=O)[C@@H](NC(=O)[C@@H](N)CCCCN)C(C)C)C(=O)N[C@@H](CC(=O)O)C(=O)NCC(=O)N[C@H](C(=O)O)C(C)C [3102.0286] (H-KVREALDGV-OH) | 9.96 |
| CSCC[C@H](NC(=O)[C@@H](N)CCCCN)C(=O)N[C@@H](CCCNC(=N)N)C(=O)N[C@@H](CCCNC(=N)N)C(=O)N[C@@H](CCC(=O)O)C(=O)N[C@@H](CCCNC(=N)N)C(=O)N[C@@H](C)C(=O)N[C@@H](C)C(=O)N[C@@H](Cc1ccc(O)cc1)C(=O)O [3102.0231] (H-KMRRERAAY-OH) | 8.52 |
| CC[C@H](C)[C@H](NC(=O)[C@H](CC(N)=O)NC(=O)[C@H](CC(=O)O)NC(=O)[C@H](CO)NC(=O)[C@H](CCCNC(=N)N)NC(=O)[C@@H](NC(=O)[C@@H](N)CCCCN)[C@@H](C)CC)C(=O)N[C@@H](CCCCN)C(=O)N[C@@H](CCCCN)C(=O)O [3102.0051] (H-KIRSDNIKK-OH) | 7.92 |
| CC[C@H](C)[C@H](N)C(=O)N[C@@H](CO)C(=O)N[C@@H](CCCNC(=N)N)C(=O)N[C@@H](CC(N)=O)C(=O)N[C@@H](CCCCN)C(=O)N[C@@H](CC(N)=O)C(=O)N[C@H](C(=O)N[C@@H](Cc1ccccc1)C(=O)N[C@H](C(=O)O)C(C)C)[C@@H](C)CC [3102.0199] (H-ISRNKNIFV-OH) | 8.14 |
| NCCCC[C@H](NC(=O)[C@H](CS)NC(=O)[C@@H]1CCCN1C(=O)[C@H](CC(N)=O)NC(=O)[C@H](CCC(=O)O)NC(=O)[C@H](Cc1ccc(O)cc1)NC(=O)[C@H](CCCCN)NC(=O)[C@H](Cc1c[nH]c2ccccc12)NC(=O)[C@@H](N)CCCCN)C(=O)O [3102.0113] (H-KWKYENPCK-OH) | 7.82 |
| CC[C@H](C)[C@H](N)C(=O)N[C@H](C(=O)N[C@@H](CCCCN)C(=O)N[C@@H](CO)C(=O)N1CCC[C@H]1C(=O)N[C@@H](Cc1ccc(O)cc1)C(=O)N[C@@H](CCSC)C(=O)N[C@@H](Cc1ccccc1)C(=O)N[C@@H](C)C(=O)O)[C@@H](C)CC [3102.0003] (H-IIKSPYMFA-OH) | 8.19 |
| CC[C@H](C)[C@H](NC(=O)[C@@H](NC(=O)[C@@H](NC(=O)[C@H](CC(=O)O)NC(=O)[C@H](CCCCN)NC(=O)[C@@H](NC(=O)[C@H](C)N)C(C)C)C(C)C)[C@@H](C)O)C(=O)N[C@H](C(=O)N[C@@H](CCCCN)C(=O)O)[C@@H](C)O [3102.0067] (H-AVKDVTITK-OH) | 8.66 |
| CC[C@H](C)[C@H](NC(=O)[C@H](CCC(N)=O)NC(=O)[C@H](Cc1c[nH]cn1)NC(=O)[C@H](CO)NC(=O)[C@H](CCC(=O)O)NC(=O)[C@H](CCCCN)NC(=O)[C@@H](NC(=O)[C@@H](N)C(C)C)[C@@H](C)O)C(=O)N[C@@H](CCCCN)C(=O)O [3102.0096] (H-VTKESHQIK-OH) | 8.82 |
| CC(C)C[C@H](NC(=O)[C@H](Cc1c[nH]cn1)NC(=O)[C@H](CC(N)=O)NC(=O)[C@H](CC(N)=O)NC(=O)[C@H](CCCNC(=N)N)NC(=O)[C@H](CO)NC(=O)[C@@H](N)[C@@H](C)O)C(=O)N1CCC[C@H]1C(=O)N[C@@H](C)C(=O)O [3102.0126] (H-TSRNNHLPA-OH) | 7.82 |
| CC[C@H](C)[C@H](NC(=O)[C@H](CCSC)NC(=O)[C@H](C)NC(=O)[C@H](C)NC(=O)[C@H](CCCNC(=N)N)NC(=O)[C@H](CC(C)C)NC(=O)[C@@H](N)[C@@H](C)O)C(=O)N[C@@H](CO)C(=O)N[C@@H](CC(C)C)C(=O)O [3102.0245] (H-TLRAAMISL-OH) | 9.15 |
| CC[C@H](C)[C@H](N)C(=O)N[C@H](C(=O)N[C@@H](CCCCN)C(=O)N[C@H](C(=O)N[C@@H](CC(N)=O)C(=O)N[C@H](C(=O)N[C@@H](Cc1c[nH]cn1)C(=O)N[C@@H](CC(C)C)C(=O)N[C@@H](C)C(=O)O)[C@@H](C)O)[C@@H](C)CC)[C@@H](C)O [3102.0001] (H-ITKINTHLA-OH) | 7.82 |
| CSCC[C@H](NC(=O)[C@H](CCC(=O)O)NC(=O)[C@H](CO)NC(=O)[C@H](CC(C)C)NC(=O)[C@H](CCCNC(=N)N)NC(=O)[C@@H](NC(=O)[C@@H](N)CCCCN)[C@@H](C)O)C(=O)N[C@@H](CC(C)C)C(=O)N[C@@H](CO)C(=O)O [3102.0174] (H-KTRLSEMLS-OH) | 9.35 |
| CC(C)C[C@H](NC(=O)[C@H](CO)NC(=O)[C@@H]1CCCN1C(=O)[C@H](CC(C)C)NC(=O)[C@H](Cc1ccc(O)cc1)NC(=O)[C@H](CCCNC(=N)N)NC(=O)[C@@H](NC(=O)[C@@H](N)CCCNC(=N)N)[C@@H](C)O)C(=O)N[C@H](C(=O)O)C(C)C [3102.0167] (H-RTRYLPSLV-OH) | 9.31 |
| CSCC[C@H](NC(=O)[C@H](CCCCN)NC(=O)[C@H](CCCCN)NC(=O)[C@H](Cc1ccc(O)cc1)NC(=O)[C@H](CCCNC(=N)N)NC(=O)[C@H](C)NC(=O)[C@@H](N)CCCNC(=N)N)C(=O)N[C@@H](CC(C)C)C(=O)N[C@@H](CCCCN)C(=O)O [3102.0172] (H-RARYKKMLK-OH) | 9.00 |
| CC[C@H](C)[C@H](NC(=O)[C@H](Cc1c[nH]cn1)NC(=O)[C@@H](NC(=O)[C@H](CC(N)=O)NC(=O)[C@H](CCCCN)NC(=O)[C@@H](NC(=O)[C@@H](N)CCCCN)C(C)C)C(C)C)C(=O)NCC(=O)NCC(=O)O [3102.0099] (H-KVKNVHIGG-OH) | 9.47 |
| CC(C)C[C@H](NC(=O)[C@@H](N)CCCNC(=N)N)C(=O)N[C@@H](CCCCN)C(=O)N[C@@H](CC(=O)O)C(=O)N[C@@H](Cc1ccc(O)cc1)C(=O)N[C@@H](CCC(N)=O)C(=O)N[C@@H](Cc1c[nH]cn1)C(=O)N[C@@H](Cc1ccccc1)C(=O)N[C@H](C(=O)O)C(C)C [3102.0208] (H-RLKDYQHFV-OH) | 9.41 |
| CC[C@H](C)[C@H](NC(=O)[C@H](CC(=O)O)NC(=O)[C@H](CC(C)C)NC(=O)[C@@H](NC(=O)[C@@H](N)CCCCN)[C@@H](C)O)C(=O)N[C@@H](CO)C(=O)N[C@@H](CO)C(=O)N[C@@H](Cc1ccccc1)C(=O)N[C@@H](Cc1ccc(O)cc1)C(=O)O [3102.0151] (H-KTLDISSFY-OH) | 7.64 |
| CC[C@H](C)[C@H](NC(=O)[C@H](CCCNC(=N)N)NC(=O)[C@H](CCC(N)=O)NC(=O)[C@@H](N)CCSC)C(=O)N[C@H](C(=O)N[C@@H](CO)C(=O)N[C@@H](CC(C)C)C(=O)N[C@@H](CO)C(=O)N[C@H](C(=O)O)C(C)C)[C@@H](C)CC [3102.0069] (H-MQRIISLSV-OH) | 8.06 |
